In patent EP2071024A1, “Peptides of human prostatic acid phosphatase enhancing viral infectivity” (Pharis Biotec GmbH, priority 2007, dated 2009):
Ends that are not written are not given here.

Test system: peripheral blood mononuclear cells (PBMC)
Assay: MTT cytotoxicity assay
Assay type: cell-based
Conditions: stimulated PBMC, incubated for 3 days, high concentrations, listed as monomeric PAP85-120
Procedure: To determine possible cytotoxic effects of PAP85-120 fibrils, serial dilutions of fibrils were added to stimulated peripheral blood mononuclear cells (PBMC) and incubated for 3 days (see example 8). Thereafter 10 µl of a 5 mg/ml MTT (Sigma; # M2128) solution was added and cells were incubated for 4 h at 37°C. In living cells mitochondrial dehydrogenases […] the yellow MTT salt to blue formazan crystals (Schiff et al.; 1985). After dissolving the crystals in 1:1 Ethanol/DMSO, samples containing living cells appear blue whereas samples from dead cells are clear. Optical density (OD) was measured at 560/650 nm using a photometer (Molecular Devices).
Fig. 5: PAP85 is non cytotoxic. Peripheral blood mononuclear cells (PBMC) were stimulated with phytohemagglutinine (2 µg/ml) and Interleukin 2 (10 µg/ml) for three days. Thereafter cells were sown out in 96 well dishes containing the indicated concentrations of freshly dissolved monomeric PAP85 or fibrillar PAP85 and incubated for 3 days. Cytotoxicity was determined by detecting dehydrogenase activity in living cells using the MTT assay. Values represent average values +/- SD derived from triplicates.

Sequence: IRKRYRKFLNESYKHEQVYIRSTDVDRTLMSAMTNL [freshly dissolved PAP85-120]
- cell viability / cytotoxic effects: do not exert cytotoxic effects
